How the values were obtained:
Experiment in all cases: Test B pre-/postemergence
Assay type in all cases: in vivo
Parameters in all cases: key: 0 is no effect; 10 is complete control
[1] = tested on: bedstraw (Galium aparine)
How it was run: (§1)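 Seeds were planted and sprayed preemergence, while plants at 2 to 18 cm (1- to 4-leaf stage) were sprayed postemergence at the same time, with test chemical in a non-phytotoxic solvent mixture containing surfactant. After twelve to sixteen days in a greenhouse, injury was rated visually against untreated controls on a 0–10 scale.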

[2] = tested on: cocklebur (Xanthium strumarium)
How it was run: as §1

corn (Zea mays) = tested on: corn (Zea mays)
How it was run: as §1

[3] = tested on: crabgrass (Digitaria sanguinalis)
How it was run: as §1

[4] = tested on: giant foxtail (Setaria faberii)
How it was run: as §1

[5] = tested on: momingglory (Ipomoea hederacea)
How it was run: as §1

[6] = tested on: pigweed (Amaranthus retroflexus)
How it was run: as §1

[7] = tested on: purple nutsedge (Cyperus rotundus)
How it was run: as §1

rape (Brassica napus) = tested on: rape (Brassica napus)
How it was run: as §1

soybean (Glycine max) = tested on: soybean (Glycine max)
How it was run: as §1

[8] = tested on: sugar beet (Beta vulgaris)
How it was run: as §1

[9] = tested on: velvetleaf (Abutilon theophrasti)
How it was run: as §1

[10] = tested on: wheat (Triticum aestivum)
How it was run: as §1

wild oat (Avena fatua) = tested on: wild oat (Avena fatua)
How it was run: as §1

Structure (SMILES): Cc1cnc(-c2ccc(OC(F)(F)F)cc2)nc1Cc1cccc(C(F)(F)F)c1 [Compound 16]
- Plant response rating, Bedstraw ([1]; Rate 62 g/ha, Postemergence): 3
- Bedstraw plant response rating ([1]; Rate 62 g/ha, Preemergence): 0
- Plant response rating, Bedstraw ([1]; Rate 125 g/ha, Postemergence): 4
- Bedstraw plant response rating ([1]; Rate 125 g/ha, Preemergence): 0
- Plant response rating, Bedstraw ([1]; Rate 250 g/ha, Postemergence): 4
- Plant response rating, Bedstraw ([1]; Rate 250 g/ha, Preemergence): 0
- Plant response rating, Bedstraw ([1]; Rate 500 g/ha, Postemergence): 5
- Plant response rating, Bedstraw ([1]; Rate 500 g/ha, Preemergence): 1
- Plant response rating, Cocklebur ([2]; Rate 62 g/ha, Postemergence): 4
- Cocklebur plant response rating ([2]; Rate 62 g/ha, Preemergence): 0
- Plant response rating, Cocklebur ([2]; Rate 125 g/ha, Postemergence): 4
- Cocklebur plant response rating ([2]; Rate 125 g/ha, Preemergence): 0
- Plant response rating, Cocklebur ([2]; Rate 250 g/ha, Postemergence): 5
- Plant response rating, Cocklebur ([2]; Rate 250 g/ha, Preemergence): 0
- Plant response rating, Cocklebur ([2]; Rate 500 g/ha, Postemergence): 6
- Plant response rating, Cocklebur ([2]; Rate 500 g/ha, Preemergence): 0
- Plant response rating, Corn (corn (Zea mays); Rate 62 g/ha, Postemergence): 1
- Corn plant response rating (corn (Zea mays); Rate 62 g/ha, Preemergence): 0
- Plant response rating, Corn (corn (Zea mays); Rate 125 g/ha, Postemergence): 1
- Corn plant response rating (corn (Zea mays); Rate 125 g/ha, Preemergence): 0
- Plant response rating, Corn (corn (Zea mays); Rate 250 g/ha, Postemergence): 1
- Plant response rating, Corn (corn (Zea mays); Rate 250 g/ha, Preemergence): 0
- Plant response rating, Corn (corn (Zea mays); Rate 500 g/ha, Postemergence): 1
- Plant response rating, Corn (corn (Zea mays); Rate 500 g/ha, Preemergence): 0
- Plant response rating, Crabgrass ([3]; Rate 62 g/ha, Postemergence): 2
- Crabgrass plant response rating ([3]; Rate 62 g/ha, Preemergence): 0
- Plant response rating, Crabgrass ([3]; Rate 125 g/ha, Postemergence): 2
- Crabgrass plant response rating ([3]; Rate 125 g/ha, Preemergence): 0
- Plant response rating, Crabgrass ([3]; Rate 250 g/ha, Postemergence): 2
- Plant response rating, Crabgrass ([3]; Rate 250 g/ha, Preemergence): 2
- Plant response rating, Crabgrass ([3]; Rate 500 g/ha, Postemergence): 7
- Plant response rating, Crabgrass ([3]; Rate 500 g/ha, Preemergence): 8
- Plant response rating, Giant foxtail ([4]; Rate 62 g/ha, Postemergence): 1
- Giant foxtail plant response rating ([4]; Rate 62 g/ha, Preemergence): 0
- Plant response rating, Giant foxtail ([4]; Rate 125 g/ha, Postemergence): 1
- Giant foxtail plant response rating ([4]; Rate 125 g/ha, Preemergence): 3
- Plant response rating, Giant foxtail ([4]; Rate 250 g/ha, Postemergence): 1
- Plant response rating, Giant foxtail ([4]; Rate 250 g/ha, Preemergence): 7
- Plant response rating, Giant foxtail ([4]; Rate 500 g/ha, Postemergence): 3
- Plant response rating, Giant foxtail ([4]; Rate 500 g/ha, Preemergence): 8
- Morningglory plant response rating ([5]; Rate 62 g/ha, Preemergence): 0
- Plant response rating, Morningglory ([5]; Rate 125 g/ha, Postemergence): 1
- Morningglory plant response rating ([5]; Rate 125 g/ha, Preemergence): 0
- Plant response rating, Morningglory ([5]; Rate 250 g/ha, Postemergence): 1
- Plant response rating, Morningglory ([5]; Rate 250 g/ha, Preemergence): 0
- Plant response rating, Morningglory ([5]; Rate 500 g/ha, Postemergence): 1
- Plant response rating, Morningglory ([5]; Rate 500 g/ha, Preemergence): 1
- Plant response rating, Redroot pigweed ([6]; Rate 62 g/ha, Postemergence): 5
- Redroot pigweed plant response rating ([6]; Rate 62 g/ha, Preemergence): 0
- Plant response rating, Redroot pigweed ([6]; Rate 125 g/ha, Postemergence): 6
- Redroot pigweed plant response rating ([6]; Rate 125 g/ha, Preemergence): 0
- Plant response rating, Redroot pigweed ([6]; Rate 250 g/ha, Postemergence): 8
- Plant response rating, Redroot pigweed ([6]; Rate 250 g/ha, Preemergence): 8
- Plant response rating, Redroot pigweed ([6]; Rate 500 g/ha, Postemergence): 9
- Plant response rating, Redroot pigweed ([6]; Rate 500 g/ha, Preemergence): 8
- Plant response rating, Nutsedge ([7]; Rate 62 g/ha, Postemergence): 0
- Nutsedge plant response rating ([7]; Rate 62 g/ha, Preemergence): 0
- Plant response rating, Nutsedge ([7]; Rate 125 g/ha, Postemergence): 0
- Nutsedge plant response rating ([7]; Rate 125 g/ha, Preemergence): 0
- Plant response rating, Nutsedge ([7]; Rate 250 g/ha, Postemergence): 0
- Plant response rating, Nutsedge ([7]; Rate 250 g/ha, Preemergence): 0
- Plant response rating, Nutsedge ([7]; Rate 500 g/ha, Postemergence): 1
- Plant response rating, Nutsedge ([7]; Rate 500 g/ha, Preemergence): 0
- Plant response rating, Rape (rape (Brassica napus); Rate 62 g/ha, Postemergence): 1
- Rape plant response rating (rape (Brassica napus); Rate 62 g/ha, Preemergence): 0
- Plant response rating, Rape (rape (Brassica napus); Rate 125 g/ha, Postemergence): 2
- Rape plant response rating (rape (Brassica napus); Rate 125 g/ha, Preemergence): 0
- Plant response rating, Rape (rape (Brassica napus); Rate 250 g/ha, Postemergence): 2
- Plant response rating, Rape (rape (Brassica napus); Rate 250 g/ha, Preemergence): 0
- Plant response rating, Rape (rape (Brassica napus); Rate 500 g/ha, Postemergence): 5
- Plant response rating, Rape (rape (Brassica napus); Rate 500 g/ha, Preemergence): 1
- Plant response rating, Soybean (soybean (Glycine max); Rate 62 g/ha, Postemergence): 3
- Soybean plant response rating (soybean (Glycine max); Rate 62 g/ha, Preemergence): 0
- Plant response rating, Soybean (soybean (Glycine max); Rate 125 g/ha, Postemergence): 3
- Soybean plant response rating (soybean (Glycine max); Rate 125 g/ha, Preemergence): 0
- Plant response rating, Soybean (soybean (Glycine max); Rate 250 g/ha, Postemergence): 4
- Plant response rating, Soybean (soybean (Glycine max); Rate 250 g/ha, Preemergence): 0
- Plant response rating, Soybean (soybean (Glycine max); Rate 500 g/ha, Postemergence): 4
- Plant response rating, Soybean (soybean (Glycine max); Rate 500 g/ha, Preemergence): 0
- Plant response rating, Sugarbeets ([8]; Rate 62 g/ha, Postemergence): 8
- Sugarbeets plant response rating ([8]; Rate 62 g/ha, Preemergence): 0
- Plant response rating, Sugarbeets ([8]; Rate 125 g/ha, Postemergence): 8
- Sugarbeets plant response rating ([8]; Rate 125 g/ha, Preemergence): 1
- Plant response rating, Sugarbeets ([8]; Rate 250 g/ha, Postemergence): 9
- Plant response rating, Sugarbeets ([8]; Rate 250 g/ha, Preemergence): 7
- Plant response rating, Sugarbeets ([8]; Rate 500 g/ha, Postemergence): 9
- Plant response rating, Sugarbeets ([8]; Rate 500 g/ha, Preemergence): 9
- Plant response rating, Velvetleaf ([9]; Rate 62 g/ha, Postemergence): 1
- Velvetleaf plant response rating ([9]; Rate 62 g/ha, Preemergence): 0
- Plant response rating, Velvetleaf ([9]; Rate 125 g/ha, Postemergence): 2
- Velvetleaf plant response rating ([9]; Rate 125 g/ha, Preemergence): 0
- Plant response rating, Velvetleaf ([9]; Rate 250 g/ha, Postemergence): 2
- Plant response rating, Velvetleaf ([9]; Rate 250 g/ha, Preemergence): 1
- Plant response rating, Velvetleaf ([9]; Rate 500 g/ha, Postemergence): 2
- Plant response rating, Velvetleaf ([9]; Rate 500 g/ha, Preemergence): 1
- Plant response rating, Wheat ([10]; Rate 62 g/ha, Postemergence): 0
- Wheat plant response rating ([10]; Rate 62 g/ha, Preemergence): 0
- Plant response rating, Wheat ([10]; Rate 125 g/ha, Postemergence): 0
- Wheat plant response rating ([10]; Rate 125 g/ha, Preemergence): 0
- Plant response rating, Wheat ([10]; Rate 250 g/ha, Postemergence): 0
- Plant response rating, Wheat ([10]; Rate 250 g/ha, Preemergence): 0
- Plant response rating, Wheat ([10]; Rate 500 g/ha, Postemergence): 1
- Plant response rating, Wheat ([10]; Rate 500 g/ha, Preemergence): 0
- Plant response rating, Wild oats (wild oat (Avena fatua); Rate 62 g/ha, Postemergence): 0
- Wild oats plant response rating (wild oat (Avena fatua); Rate 62 g/ha, Preemergence): 0
- Plant response rating, Wild oats (wild oat (Avena fatua); Rate 125 g/ha, Postemergence): 0
- Wild oats plant response rating (wild oat (Avena fatua); Rate 125 g/ha, Preemergence): 1
- Plant response rating, Wild oats (wild oat (Avena fatua); Rate 250 g/ha, Postemergence): 1
- Plant response rating, Wild oats (wild oat (Avena fatua); Rate 250 g/ha, Preemergence): 2
- Plant response rating, Wild oats (wild oat (Avena fatua); Rate 500 g/ha, Postemergence): 1
- Plant response rating, Wild oats (wild oat (Avena fatua); Rate 500 g/ha, Preemergence): 3
